Data on three compounds can be found in the NIST ThermoML archive (doi:10.1016/j.tca.2015.04.021).

The series in a line: molar enthalpy of vaporization or sublimation. The following applies: Liquid, TGA.

± gives the expanded uncertainty stated by the source.

Turning to `Cn1cc[n+](CCC(F)(F)C(F)(F)C(F)(F)C(F)(F)C(F)(F)C(F)(F)C(F)(F)C(F)(F)F)c1.O=S(=O)([N-]S(=O)(=O)C(F)(F)F)C(F)(F)F`, where the note is “531.8 K”, the molar enthalpy was 30.5 ± 0.669 kcal/mol.

Turning to `Cn1cc[n+](CCC(F)(F)C(F)(F)F)c1.O=S(=O)([N-]S(=O)(=O)C(F)(F)F)C(F)(F)F`, the molar enthalpy (527.7 K) turned out to be 27.2 ± 0.621 kcal/mol.

With `Cn1cc[n+](CCC(F)(F)C(F)(F)C(F)(F)C(F)(F)C(F)(F)C(F)(F)F)c1.O=S(=O)([N-]S(=O)(=O)C(F)(F)F)C(F)(F)F`, the molar enthalpy (532.3 K) turned out to be 30.1 ± 0.669 kcal/mol.
